{"source": "patent US9938256B2", "about": "“Annelated benzamides” (Boehringer Ingelheim International GmbH, priority 2015, dated 2018)", "molecular_target": "T1, ENaC (Epithelial Sodium Channel) (Mus musculus, UniProt Q61180+Q9WU38+Q9WU39)", "T1 sequence (Q61180 1-699)": "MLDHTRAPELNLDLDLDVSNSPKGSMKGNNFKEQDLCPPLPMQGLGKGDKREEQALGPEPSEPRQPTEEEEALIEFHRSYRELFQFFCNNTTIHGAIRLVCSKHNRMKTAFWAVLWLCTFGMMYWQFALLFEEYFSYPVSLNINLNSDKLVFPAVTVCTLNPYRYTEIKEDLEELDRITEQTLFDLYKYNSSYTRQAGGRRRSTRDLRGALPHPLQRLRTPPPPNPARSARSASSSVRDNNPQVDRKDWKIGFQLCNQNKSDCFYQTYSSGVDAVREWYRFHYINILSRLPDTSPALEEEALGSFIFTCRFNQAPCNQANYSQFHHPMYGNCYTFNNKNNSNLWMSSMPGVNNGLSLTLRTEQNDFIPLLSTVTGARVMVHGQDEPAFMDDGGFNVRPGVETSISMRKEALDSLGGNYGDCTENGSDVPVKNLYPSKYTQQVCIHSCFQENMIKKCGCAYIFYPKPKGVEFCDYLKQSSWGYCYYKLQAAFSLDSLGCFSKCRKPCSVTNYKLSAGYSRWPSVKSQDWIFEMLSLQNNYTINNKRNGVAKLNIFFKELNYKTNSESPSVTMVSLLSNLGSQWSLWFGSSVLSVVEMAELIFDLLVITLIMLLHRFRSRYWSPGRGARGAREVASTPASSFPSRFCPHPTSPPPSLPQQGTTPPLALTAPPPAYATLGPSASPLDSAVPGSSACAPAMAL", "T1 sequence (Q9WU38 1-638)": "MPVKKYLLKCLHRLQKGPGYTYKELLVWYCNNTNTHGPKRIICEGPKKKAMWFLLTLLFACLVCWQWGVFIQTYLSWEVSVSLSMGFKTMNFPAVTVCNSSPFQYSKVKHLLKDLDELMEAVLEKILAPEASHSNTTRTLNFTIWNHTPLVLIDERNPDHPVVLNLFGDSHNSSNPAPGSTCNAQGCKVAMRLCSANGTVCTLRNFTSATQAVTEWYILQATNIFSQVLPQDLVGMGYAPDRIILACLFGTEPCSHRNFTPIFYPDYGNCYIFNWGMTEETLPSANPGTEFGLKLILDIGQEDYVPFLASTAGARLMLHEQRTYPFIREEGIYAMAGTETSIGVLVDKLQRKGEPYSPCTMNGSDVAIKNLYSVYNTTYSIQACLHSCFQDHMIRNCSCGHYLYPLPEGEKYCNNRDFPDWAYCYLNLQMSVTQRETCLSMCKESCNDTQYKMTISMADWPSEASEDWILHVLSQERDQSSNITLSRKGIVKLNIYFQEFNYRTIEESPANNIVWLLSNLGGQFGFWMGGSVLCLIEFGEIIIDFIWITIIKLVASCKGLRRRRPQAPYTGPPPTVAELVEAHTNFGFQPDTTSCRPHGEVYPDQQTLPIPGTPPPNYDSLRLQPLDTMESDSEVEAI", "T1 sequence (Q9WU39 1-655)": "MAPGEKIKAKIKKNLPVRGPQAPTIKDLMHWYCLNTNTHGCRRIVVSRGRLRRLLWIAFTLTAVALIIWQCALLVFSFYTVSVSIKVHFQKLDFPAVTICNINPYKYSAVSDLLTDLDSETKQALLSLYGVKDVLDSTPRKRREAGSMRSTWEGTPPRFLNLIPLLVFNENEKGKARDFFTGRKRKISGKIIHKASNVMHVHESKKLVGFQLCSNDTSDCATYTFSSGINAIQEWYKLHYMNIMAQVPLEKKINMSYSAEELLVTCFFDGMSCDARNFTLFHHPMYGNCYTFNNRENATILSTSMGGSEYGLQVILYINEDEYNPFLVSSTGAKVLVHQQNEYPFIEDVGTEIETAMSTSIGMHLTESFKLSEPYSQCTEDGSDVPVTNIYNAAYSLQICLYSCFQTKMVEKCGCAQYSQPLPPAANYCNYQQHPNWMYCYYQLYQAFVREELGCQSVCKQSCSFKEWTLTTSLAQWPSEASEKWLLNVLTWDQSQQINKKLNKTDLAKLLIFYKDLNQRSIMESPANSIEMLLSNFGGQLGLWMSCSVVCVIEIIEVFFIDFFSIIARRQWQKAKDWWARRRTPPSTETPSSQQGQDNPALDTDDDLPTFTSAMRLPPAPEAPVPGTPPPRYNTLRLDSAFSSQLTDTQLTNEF", "experiment": "Ussing Chamber assay (amiloride sensitive short circuit current in M-1 cells)", "assay_type": "cell-based", "conditions": "Mouse kidney M-1 cells, apical administration, 37° C.", "procedure": "The IC50 values of the example compounds given above were determined in the Ussing Chamber assay. Ussing Chamber: Mouse kidney M-1 cells were cultivated in DMEM containing 5% FCS and 5 μM dexamethasone for 10 to 12 days on polyester transwell filters. Filters were inserted into a teflon-coated well-plate which fit into the ussing chamber system. Prior to measurement the medium of M-1 cells was replaced with Caco-2 transport buffer (Invitrogen, Germany). During measurements, the Ussing chamber temperature was kept at 37° C. Short circuit currents (I_sc) were measured in the voltage-clamp mode with the software package Lab View for data acquisition and analysis. The transepithelial electrical resistance (TEER) was determined by the application of voltage steps of ±5 mV every 5 sec. Compounds were administered at a final concentration of 3 μM or at increasing concentrations (1-3-10 μM) to the apical solution. At the end of each experiment the amiloride sensitive I_SC was measured by adding 3 μM amiloride to the apical compartment. Results are expressed as inhibition in percent of the amiloride effect or as IC50. With the example compounds given above, the following IC50 values were determined in the Ussing Chamber assay: […]"}
{"smiles": "CCn1c(CNC(=O)c2nc(Cl)cnc2N)[n+](CC)c2ccc(C(=O)N3CCNCC3)cc21", "note": "[Example 1.01]", "values": [{"measurement": "IC50", "value": 7, "unit": "nM"}]}
{"smiles": "CCn1c(CNC(=O)c2nc(Cl)cnc2N)[n+](CC)c2ccc(C(=O)N(C)CCCNC)cc21", "note": "[Example 1.02]", "values": [{"measurement": "IC50", "value": 4, "unit": "nM"}]}
{"smiles": "CCn1c(CNC(=O)c2nc(Cl)cnc2N)[n+](CC)c2ccc(C(=O)NCCN3CCOCC3)cc21", "note": "[Example 1.03]", "values": [{"measurement": "IC50", "value": 7, "unit": "nM"}]}
{"smiles": "CCn1c(CNC(=O)c2nc(Cl)cnc2N)[n+](CC)c2ccc(C(=O)NCCCNC)cc21", "note": "[Example 1.04]", "values": [{"measurement": "IC50", "value": 3, "unit": "nM"}]}
{"smiles": "CCn1c(CNC(=O)c2nc(Cl)cnc2N)[n+](CC)c2ccc(C(=O)N(CCN)CC(C)C)cc21", "note": "[Example 1.05]", "values": [{"measurement": "IC50", "value": 8, "unit": "nM"}]}
{"smiles": "CCn1c(CNC(=O)c2nc(Cl)cnc2N)[n+](CC)c2ccc(C(=O)NCCN(C)C)cc21", "note": "[Example 1.06]", "values": [{"measurement": "IC50", "value": 4, "unit": "nM"}]}
{"smiles": "CCn1c(CNC(=O)c2nc(Cl)cnc2N)[n+](CC)c2ccc(C(=O)N3CCN(C)CC3)cc21", "note": "[Example 1.07]", "values": [{"measurement": "IC50", "value": 5, "unit": "nM"}]}
{"smiles": "CCn1c(CNC(=O)c2nc(Cl)cnc2N)[n+](CC)c2ccc(C(=O)NCCNC)cc21", "note": "[Example 1.08]", "values": [{"measurement": "IC50", "value": 6, "unit": "nM"}]}
{"smiles": "CCn1c(CNC(=O)c2nc(Cl)cnc2N)[n+](CC)c2ccc(C(=O)NC[C@H](O)[C@@H](O)[C@H](O)[C@H](O)CO)cc21", "note": "[Example 1.09]", "values": [{"measurement": "IC50", "value": 6, "unit": "nM"}]}
{"smiles": "CCn1c(CNC(=O)c2nc(Cl)cnc2N)[n+](CC)c2ccc(C(=O)NCCCN)cc21", "note": "[Example 1.10]", "values": [{"measurement": "IC50", "value": 4, "unit": "nM"}]}
{"smiles": "CCn1c(CNC(=O)c2nc(Cl)cnc2N)[n+](CC)c2ccc(C(=O)N3CCC(NC(=O)CN(C)C)CC3)cc21", "note": "[Example 1.11]", "values": [{"measurement": "IC50", "value": 5, "unit": "nM"}]}
{"smiles": "CCn1c(CNC(=O)c2nc(Cl)cnc2N)[n+](CC)c2cc(C(=O)N3CCC(N(C)C)CC3)ccc21", "note": "[Example 1.12]", "values": [{"measurement": "IC50", "value": 4, "unit": "nM"}]}
{"smiles": "CCn1c(CNC(=O)c2nc(Cl)cnc2N)[n+](CC)c2ccc(C(=O)N(CCN)CCN)cc21", "note": "[Example 1.13]", "values": [{"measurement": "IC50", "value": 7, "unit": "nM"}]}
{"smiles": "CCn1c(CNC(=O)c2nc(Cl)cnc2N)[n+](CC)c2ccc(C(=O)N(C)CCNC)cc21", "note": "[Example 1.14]", "values": [{"measurement": "IC50", "value": 4, "unit": "nM"}]}
{"smiles": "CCn1c(CNC(=O)c2nc(Cl)cnc2N)[n+](CC)c2ccc(C(=O)N(C)CCN3CCOCC3)cc21", "note": "[Example 1.15]", "values": [{"measurement": "IC50", "value": 6, "unit": "nM"}]}
{"smiles": "CCn1c(CNC(=O)c2nc(Cl)cnc2N)[n+](CC)c2cc(C(=O)N3CCN(CP(C)(C)=O)CC3)ccc21", "note": "[Example 1.16]", "values": [{"measurement": "IC50", "value": 12, "unit": "nM"}]}
{"smiles": "CCn1c(CNC(=O)c2nc(Cl)cnc2N)[n+](CC)c2ccc(C(=O)N(C)CCCN(C)C)cc21", "note": "[Example 1.17]", "values": [{"measurement": "IC50", "value": 7, "unit": "nM"}]}
{"smiles": "CCCCN1CCN(C(=O)c2ccc3c(c2)[n+](CC)c(CNC(=O)c2nc(Cl)cnc2N)n3CC)CC1", "note": "[Example 1.18]", "values": [{"measurement": "IC50", "value": 5, "unit": "nM"}]}
{"smiles": "CCn1c(CNC(=O)c2nc(Cl)cnc2N)[n+](CC)c2ccc(C(=O)N3CCCNCC3)cc21", "note": "[Example 1.19]", "values": [{"measurement": "IC50", "value": 4, "unit": "nM"}]}
{"smiles": "CCn1c(CNC(=O)c2nc(Cl)cnc2N)[n+](CC)c2ccc(C(=O)N(C)CCN(C)C)cc21", "note": "[Example 1.20]", "values": [{"measurement": "IC50", "value": 6, "unit": "nM"}]}
{"smiles": "CCn1c(CNC(=O)c2nc(Cl)cnc2N)[n+](CC)c2ccc(C(=O)N3CCC(NC(=O)CN)CC3)cc21", "note": "[Example 1.21]", "values": [{"measurement": "IC50", "value": 5, "unit": "nM"}]}
{"smiles": "CCn1c(CNC(=O)c2nc(Cl)cnc2N)[n+](CC)c2cc(C(=O)NCCOCP(C)(C)=O)ccc21", "note": "[Example 1.22]", "values": [{"measurement": "IC50", "value": 13, "unit": "nM"}]}
